{
  "source": "paper PMC9635984",
  "about": "(Bioorganic & medicinal chemistry letters, 2022)",
  "tested_on": "MDA-MB-231 breast cancer cells",
  "assay": "In vitro antitumor activity against breast cancer cell line MDA-MB-231",
  "assay_type": "cell-based",
  "settings": "Homo sapiens, MDA-MB-231, read-out: IC50 (μM) MDA-MB-231",
  "data": [
    {"smiles": "Cn1c(CCCC(=O)O)nc2cc(N(CCCl)CCCl)ccc21", "note": "[Bendamustiune, bendamustine]", "values": [
      {"measurement": "IC50", "value": 13.3, "unit": "µM"}
    ]}
  ]
}
